Common to all, as to assay type: biochemical
The target in experiment [1] is T1, PRMT5 (Homo sapiens, UniProt O14744).
T1 construct: purchased Viva (custom protein)
The experiment can be described thus: PRMT5 IC50 assay in the presence of MTA as cofactor. The conditions noted are these: for IC50: PRMT5, MTA as cofactor; for SAM/MTA Ratio: ratio between the Ki in the presence of SAM and the Ki in the presence of MTA. An excerpt:
(§1) Table 1a indicates IC50 values (μM) against PRMT5 for exemplary compounds in the presence of SAM as cofactor, with no cofactor and with MTA as cofactor, respectively (columns 3-5). […] The Ki values can be calculated from the IC50 values as described in the Examples section. As detailed in the Examples section, for the assay performed in the presence of SAM, IC50=Ki×1.5 (Ki=IC50/1.5). For the assay performed in the presence of MTA, IC50=Ki×13.5 (Ki=IC50/13.5). Column 6 indicates the ratio between the Ki of compounds in the presence of SAM and the Ki of compounds in the presence of MTA

Experiment [2] has as its target T1, PRMT5. The experiment can be described thus: PRMT5 IC50 assay in the presence of SAM as cofactor.
Description: as §1

In experiment [3] the target is T1, PRMT5. In words: PRMT5 IC50 assay with no cofactor.
Description: as §1

Each structure is given as a SMILES string. Where only a bound is given, the exact number is not on record here.

T1 sequence (O14744 whole entry): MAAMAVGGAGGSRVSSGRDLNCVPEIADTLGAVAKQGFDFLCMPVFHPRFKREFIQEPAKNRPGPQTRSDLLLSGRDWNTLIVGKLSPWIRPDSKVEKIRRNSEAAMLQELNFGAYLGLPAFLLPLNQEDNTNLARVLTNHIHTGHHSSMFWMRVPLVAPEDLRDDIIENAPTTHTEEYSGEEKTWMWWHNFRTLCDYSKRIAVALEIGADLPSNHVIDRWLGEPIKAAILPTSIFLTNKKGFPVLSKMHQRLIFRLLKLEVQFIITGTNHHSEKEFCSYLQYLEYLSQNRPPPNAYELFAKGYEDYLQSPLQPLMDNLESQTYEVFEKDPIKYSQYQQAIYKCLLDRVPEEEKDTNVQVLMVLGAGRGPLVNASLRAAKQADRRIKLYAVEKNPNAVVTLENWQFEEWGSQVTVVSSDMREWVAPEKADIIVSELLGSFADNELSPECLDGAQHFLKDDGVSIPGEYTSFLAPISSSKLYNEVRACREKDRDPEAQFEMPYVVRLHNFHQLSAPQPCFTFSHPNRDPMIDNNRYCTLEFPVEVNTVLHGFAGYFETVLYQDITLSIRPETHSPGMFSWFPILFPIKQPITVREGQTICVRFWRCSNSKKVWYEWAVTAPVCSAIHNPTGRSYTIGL
T1 sequence (Q9BQA1 whole entry partner): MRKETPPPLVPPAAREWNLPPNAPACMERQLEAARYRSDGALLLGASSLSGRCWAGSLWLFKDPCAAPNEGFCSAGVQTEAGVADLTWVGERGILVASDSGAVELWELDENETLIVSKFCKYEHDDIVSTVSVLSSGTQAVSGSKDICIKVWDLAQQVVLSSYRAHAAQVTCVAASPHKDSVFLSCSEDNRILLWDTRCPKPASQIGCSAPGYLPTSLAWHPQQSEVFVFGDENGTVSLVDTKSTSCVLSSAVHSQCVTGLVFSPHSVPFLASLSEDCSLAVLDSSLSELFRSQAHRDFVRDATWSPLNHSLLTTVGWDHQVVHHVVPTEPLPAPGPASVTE

`COCC(=O)N1CC(Nc2cc(C(=O)NC[C@H](O)CN3CCc4c(ccc(OCc5cnco5)c4C)C3)ncn2)C1` [Compound 518, N-[(2S)-2-hydroxy-3-{5-methyl-6-[(1,3-oxazol-5-yl)methoxy]-1,2,3,4-tetrahydroisoquinolin-2-yl}propyl]-6-{[1-(2-methoxyacetyl)azetidin-3-yl]amino}pyrimidine-4-carboxamide]: the IC50 (as a rule, the point on the concentration scale where inhibition reaches its midpoint) was 0.5 to 5 µM at PRMT5 [1], 0.5 to 5 µM at PRMT5 [2] and at least 5 µM at PRMT5 [3]. Further, the “SAM/MTA Ratio” value on PRMT5 [1] is “A (a Ki ratio greater than or equal to 10 fold between the Ki in the presence of SAM and the Ki in the presence of MTA)”.
Regarding `Cc1c(OCc2cnco2)ccc2c1CCN(C[C@@H](O)CNC(=O)c1cc(N[C@H]3C[C@H](C(=O)N4CCC4)C3)ncn1)C2` [Compound 519, N-[(2S)-2-hydroxy-3-{5-methyl-6-[(1,3-oxazol-5-yl)methoxy]-1,2,3,4-tetrahydroisoquinolin-2-yl}propyl]-6-{[(1r,3r)-3-(azetidine-1-carbonyl)cyclobutyl]amino}pyrimidine-4-carboxamide], the half-inhibitory concentration (IC50) is 0.5 to 5 µM on PRMT5 [1], 0.5 to 5 µM on PRMT5 [2] and at least 5 µM on PRMT5 [3]. At PRMT5 [1], the “SAM/MTA Ratio” value was “A (a Ki ratio greater than or equal to 10 fold between the Ki in the presence of SAM and the Ki in the presence of MTA)”.
Consider `Cc1c(OCc2ccnn2C)ccc2c1CCN(C[C@@H](O)CNC(=O)c1cc(NC3CCC3)ccn1)C2` [Compound 521, (S)-4-(cyclobutylamino)-N-(2-hydroxy-3-(5-methyl-6-((1-methyl-1H-pyrazol-5-yl)methoxy)-3N-dihydroisoquinolin-2(1H)-yl)propyl)picolinamide], for which the figures for the IC50 on PRMT5 [1], on PRMT5 [2] and at PRMT5 [3] were 0.5 to 5 µM, 0.5 to 5 µM and at least 5 µM, respectively. Moreover, the “SAM/MTA Ratio” value on PRMT5 [1] is “A (a Ki ratio greater than or equal to 10 fold between the Ki in the presence of SAM and the Ki in the presence of MTA)”.
Consider `CNC(=O)CN1CCC(Nc2cc(C(=O)NC[C@H](O)CN3CCc4c(ccc(OCc5cnco5)c4C)C3)ncn2)CC1` [Compound 524, N-[(2S)-2-hydroxy-3-{5-methyl-6-[(1,3-oxazol-5-yl)methoxy]-1,2,3,4-tetrahydroisoquinolin-2-yl}propyl]-6-{[1-[(methylcarbamoyl)methyl]piperidin-4-yl}amino)pyrimidine-4-carboxamide], for which the half-inhibitory concentration (IC50) was 0.5 to 5 µM on PRMT5 [1], 0.5 to 5 µM at PRMT5 [2] and at least 5 µM against PRMT5 [3]. Also, the “SAM/MTA Ratio” value on PRMT5 [1] is “A (a Ki ratio greater than or equal to 10 fold between the Ki in the presence of SAM and the Ki in the presence of MTA)”.
Regarding `CC(=O)N1CCC(Nc2cccc(C(=O)NC[C@H](O)CN3CCc4c(ccc(OCc5cnco5)c4C)C3)c2)C1` (stereo partly drawn) [Compound 525, 3-[(1-acetylpyrrolidin-3-yl)amino]-N-[(2S)-2-hydroxy-3-{5-methyl-6-[(1,3-oxazol-5-yl)methoxy]-1,2,3,4-tetrahydroisoquinolin-2-yl}propyl]benzamide], the IC50 at PRMT5 [1] was 0.5 to 5 µM; at PRMT5 [2], 0.5 to 5 µM; against PRMT5 [3], at least 5 µM. For the same compound, the “SAM/MTA Ratio” value at PRMT5 [1] was “A (a Ki ratio greater than or equal to 10 fold between the Ki in the presence of SAM and the Ki in the presence of MTA)”.
For the compound `Cc1c(OCc2cnco2)ccc2c1CCN(C[C@@H](O)CNC(=O)c1cc(N[C@H]3C[C@H](C(=O)N4CCCCC4)C3)ncn1)C2` [Compound 526], the IC50 on PRMT5 [1] is 0.05 to 0.5 µM; on PRMT5 [2], 0.5 to 5 µM; against PRMT5 [3], at least 5 µM. Also, on PRMT5 [1], the “SAM/MTA Ratio” value was “A (a Ki ratio greater than or equal to 10 fold between the Ki in the presence of SAM and the Ki in the presence of MTA)”.
Take `Cc1c(OCc2cnco2)ccc2c1CCN(C[C@@H](O)CNC(=O)c1ccnc(Nc3cccnc3)c1)C2` [Compound 531, N-[(2S)-2-hydroxy-3-{5-methyl-6-[(1,3-oxazol-5-yl)methoxy]-1,2,3,4-tetrahydroisoquinolin-2-yl}propyl]-2-[(pyridin-3-yl)amino]pyridine-4-carboxamide]: the values for the IC50 on PRMT5 [1], at PRMT5 [2] and against PRMT5 [3] were 0.5 to 5 µM, 0.5 to 5 µM and at least 5 µM, respectively. For the same compound, the “SAM/MTA Ratio” value at PRMT5 [1] was “A (a Ki ratio greater than or equal to 10 fold between the Ki in the presence of SAM and the Ki in the presence of MTA)”.
Regarding `CO[C@H]1C[C@@H](Nc2cc(C(=O)NC[C@H](O)CN3CCc4c(ccc(OCc5cnco5)c4C)C3)ccn2)C1` [Compound 535], the figures for the IC50 at PRMT5 [1], on PRMT5 [2] and against PRMT5 [3] were 0.05 to 0.5 µM, 0.5 to 5 µM and at least 5 µM, respectively. In addition, the “SAM/MTA Ratio” value on PRMT5 [1] was “A (a Ki ratio greater than or equal to 10 fold between the Ki in the presence of SAM and the Ki in the presence of MTA)”.
Take `Cc1c(OCc2cnco2)ccc2c1CCN(C[C@@H](O)CNC(=O)c1ccnc(N[C@H]3C[C@H](CO)C3)c1)C2` [Compound 537, N—((S)-2-hydroxy-3-(5-methyl-6-(oxazol-5-ylmethoxy)-3N-dihydroisoquinolin-2(1H)-yl)propyl)-2-(((1r,3S)-3-(hydroxymethyl)cyclobutyl)amino)isonicotinamide]: the IC50 on PRMT5 [1] was 0.05 to 0.5 µM; on PRMT5 [2], 0.5 to 5 µM; against PRMT5 [3], at least 5 µM. For the same compound, at PRMT5 [1], the “SAM/MTA Ratio” value was “A (a Ki ratio greater than or equal to 10 fold between the Ki in the presence of SAM and the Ki in the presence of MTA)”.
Turning to `O=C(NC[C@H](O)CN1CCc2cc(OCc3cnco3)ccc2C1)c1cc(NC2CCC2)ncn1` [Compound 538, (S)-6-(cyclobutylamino)-N-(2-hydroxy-3-(6-(oxazol-5-ylmethoxy)-3,4-dihydroisoquinolin-2(1H)-yl)propyl)pyrimidine-4-carboxamide], the IC50 at PRMT5 [1] is 0.05 to 0.5 µM; at PRMT5 [2] it was 0.5 to 5 µM; against PRMT5 [3], at least 5 µM. Further, the “SAM/MTA Ratio” value on PRMT5 [1] is “A (a Ki ratio greater than or equal to 10 fold between the Ki in the presence of SAM and the Ki in the presence of MTA)”.
Turning to `CO[C@H]1CC[C@@H](Nc2cc(C(=O)NC[C@H](O)CN3CCc4c(ccc(OCc5cnco5)c4C)C3)ncn2)CC1` [Compound 541, N-[(2S)-2-hydroxy-3-{5-methyl-6-[(1,3-oxazol-5-yl)methoxy]-1,2,3,4-tetrahydroisoquinolin-2-yl}propyl]-6-{[(1s,4s)-4-methoxycyclohexyl]amino}pyrimidine-4-carboxamide], the IC50 was 0.05 to 0.5 µM at PRMT5 [1], 0.5 to 5 µM at PRMT5 [2] and at least 5 µM at PRMT5 [3]. For the same compound, on PRMT5 [1], the “SAM/MTA Ratio” value is “A (a Ki ratio greater than or equal to 10 fold between the Ki in the presence of SAM and the Ki in the presence of MTA)”.
Regarding `Cn1nccc1COc1ccc2c(c1)CCN(C[C@@H](O)CNC(=O)c1cc(NC3CCC3)ccn1)C2` [Compound 542, (S)-4-(cyclobutylamino)-N-(2-hydroxy-3-(6-((1-methyl-1H-pyrazol-5-yl)methoxy)-3N-dihydroisoquinolin-2(1H)-yl)propyl)picolinamide], the figures for the IC50 on PRMT5 [1], on PRMT5 [2] and on PRMT5 [3] were 0.05 to 0.5 µM, 0.5 to 5 µM and at least 5 µM, respectively. Also, the “SAM/MTA Ratio” value at PRMT5 [1] is “A (a Ki ratio greater than or equal to 10 fold between the Ki in the presence of SAM and the Ki in the presence of MTA)”.
Consider `CC(=O)N1CC(Nc2cc(C(=O)NC[C@H](O)CN3CCc4c(ccc(OCc5cnco5)c4C)C3)ncn2)C1` [Compound 543, 6-[(1-acetylazetidin-3-yl)amino]-N-[(2S)-2-hydroxy-3-{5-methyl-6-[(1,3-oxazol-5-yl)methoxy]-1,2,3,4-tetrahydroisoquinolin-2-yl}propyl]pyrimidine-4-carboxamide], for which the values for the IC50 on PRMT5 [1], at PRMT5 [2] and on PRMT5 [3] were 0.5 to 5 µM, 0.5 to 5 µM and at least 5 µM, respectively. Further, the “SAM/MTA Ratio” value at PRMT5 [1] was “A (a Ki ratio greater than or equal to 10 fold between the Ki in the presence of SAM and the Ki in the presence of MTA)”.
Regarding `Cc1c(OCc2cnco2)ccc2c1CCN(C[C@@H](O)CNC(=O)c1cccc(NC3CCOCC3)c1)C2` [Compound 548, N-[(2S)-2-hydroxy-3-{5-methyl-6-[(1,3-oxazol-5-yl)methoxy]-1,2,3,4-tetrahydroisoquinolin-2-yl}propyl]-3-[(oxan-4-yl)amino]benzamide], the IC50 at PRMT5 [1] is 0.5 to 5 µM; at PRMT5 [2] it was 0.5 to 5 µM; on PRMT5 [3], at least 5 µM. For the same compound, the “SAM/MTA Ratio” value on PRMT5 [1] was “A (a Ki ratio greater than or equal to 10 fold between the Ki in the presence of SAM and the Ki in the presence of MTA)”.
Take `Cc1c(OCc2cnco2)ccc2c1CCN(C[C@@H](O)CNC(=O)c1ccnc(N[C@H]3C[C@H](O)C3)c1)C2` [Compound 552, N—((S)-2-hydroxy-3-(5-methyl-6-(oxazol-5-ylmethoxy)-3,4-dihydroisoquinolin-2(1H)-yl)propyl)-2-(((1r,3S)-3-hydroxycyclobutyl)amino)isonicotinamide]: the IC50 at PRMT5 [1] was 0.5 to 5 µM; on PRMT5 [2], 0.5 to 5 µM; at PRMT5 [3], at least 5 µM. The “SAM/MTA Ratio” value at PRMT5 [1] is “A (a Ki ratio greater than or equal to 10 fold between the Ki in the presence of SAM and the Ki in the presence of MTA)”.
As to `CCCN(C)c1cc(C(=O)NC[C@H](O)CN2CCc3cc(OCc4ocnc4C)ccc3C2)cc(NC2CCC2)n1` [Compound 553, 2-(cyclobutylamino)-N-[(2S)-2-hydroxy-3-{6-[(4-methyl-1,3-oxazol-5-yl)methoxy]-1,2,3,4-tetrahydroisoquinolin-2-yl}propyl]-6-[methyl(propyl)amino]pyridine-4-carboxamide], the IC50 at PRMT5 [1] was 0.05 to 0.5 µM; on PRMT5 [2], 0.5 to 5 µM; at PRMT5 [3], at least 5 µM. Besides, on PRMT5 [1], the “SAM/MTA Ratio” value is “A (a Ki ratio greater than or equal to 10 fold between the Ki in the presence of SAM and the Ki in the presence of MTA)”.

Source of the values: patent US11986471B2, “Compounds and methods of use” (Tango Therapeutics, Inc., priority 2018, dated 2024).
